Test results: patent US10246420B2, “Pyrazole derivatives” (BAYER CROPSCIENCE AKTIENGESELLSCHAFT, priority 2014, dated 2019)
Read-outs that look alike come from different tables or passages of the source.

Assay: Log P by HPLC on reversed phase columns (EEC directive 79/831 Annex V.A8)
Type: physicochemical
Conditions: for chromatographic logP: LC-UV, acidic range, 0.1% formic acid in water and acetonitrile as eluent, read-out: LogP [a]
Protocol: Measurement of Log P values was performed according to EEC directive 79/831 Annex V.A8 by HPLC (High Performance Liquid Chromatography) on reversed phase columns with the following methods:
[^a] Log P value is determined by measurement of LC-UV, in an acidic range, with 0.1% formic acid in water and acetonitrile as eluent (linear gradient from 10% acetonitrile to 95% acetonitrile).
[^b] Log P value is determined by measurement of LC-UV, in a neutral range, with 0.001 molar ammonium acetate solution in water and acetonitrile as eluent (linear gradient from 10% acetonitrile to 95% acetonitrile).
[^c] Log P value is determined by measurement of LC-UV, in an acidic range, with 0.1% phosphoric acid and acetonitrile as eluent (linear gradient from 10% acetonitrile to 95% acetonitrile).
Calibration was done with straight-chain alkan-2-ones (with 3 to 16 carbon atoms) with known Log P values (measurement of Log P values using retention times with linear interpolation between successive alkanones). Lambda-max-values were determined using UV-spectra from 200 nm to 400 nm and the peak values of the chromatographic signals.

| LogP [a] | Compound | further results |
| --- | --- | --- |
| – | CC(=O)Cc1ccc(O)cc1F [1-(2-fluoro-4-hydroxyphenyl)acetone] | chromatographic logP: 1.13 |
| 3.54^[a]; | C=CCOc1cc(F)c(Nc2c(-c3ccc(F)cc3Cl)c(C)nn2C)c(F)c1 [Example I-02] | LogP [c]: 3.40^[c] |
| 3.09^[a]; | C#CCOc1cc(F)c(Nc2c(-c3ccc(F)cc3Cl)c(C)nn2C)c(F)c1 [Example I-03] | LogP [c]: 2.90^[c] |
| 4.40^[a] | C=CCOc1cc(F)c(N(C)c2c(-c3ccc(F)cc3Cl)c(C)nn2C)c(F)c1 [Example I-04] | – |
| 3.69^[a] | C#CCOc1cc(F)cc(F)c1Nc1c(-c2ccc(Cl)cc2Cl)c(C)nn1C [Example I-05] | – |
| 2.78^[a] | C#CCOc1cc(F)c(Nc2c(-c3ccccc3F)c(C)nn2C)c(F)c1 [Example I-06] | – |
| 2.96^[a] | C#CCOc1cc(F)cc(F)c1Nc1c(-c2ccccc2F)c(C)nn1C [Example I-07] | – |
| 3.97^[a] | C=CCOc1cc(F)c(Nc2c(-c3ccc(Cl)cc3Cl)c(C)nn2C)c(F)c1 [Example I-08] | – |
| 3.44^[a] | C#CCOc1cc(F)c(Nc2c(-c3ccc(Cl)cc3Cl)c(C)nn2C)c(F)c1 [Example I-09] | – |
| 2.73^[a] | C#CCOc1cc(F)c(Nc2c(-c3cc(OC)cc(OC)c3)c(C)nn2C)c(F)c1 [Example I-10] | – |
| 3.11^[a] | C=CCOc1cc(F)c(Nc2c(-c3cc(OC)cc(OC)c3)c(C)nn2C)c(F)c1 [Example I-11] | – |
| 2.85^[a] | C#CCOc1cc(F)cc(F)c1Nc1c(-c2cc(OC)cc(OC)c2)c(C)nn1C [Example I-12] | – |
| 3.22^[a] | C=CCOc1cc(F)c(Nc2c(-c3ccccc3F)c(C)nn2C)c(F)c1 [Example I-13] | – |
| 2.90^[a] | C#CCOc1cc(F)c(Nc2c(-c3ccc(F)cc3F)c(C)nn2C)c(F)c1 [Example I-14] | – |
| 3.33^[a] | C=CCOc1cc(F)c(Nc2c(-c3ccc(F)cc3F)c(C)nn2C)c(F)c1 [Example I-15] | – |
| 3.07^[a] | C#CCOc1cc(F)cc(F)c1Nc1c(-c2ccc(F)cc2F)c(C)nn1C [Example I-16] | – |
| 2.74^[a] | C#CCOc1cc(F)c(Nc2c(-c3ccc(OC)cc3F)c(C)nn2C)c(F)c1 [Example I-17] | – |
| 3.11^[a] | C=CCOc1cc(F)c(Nc2c(-c3ccc(OC)cc3F)c(C)nn2C)c(F)c1 [Example I-18] | – |
| 2.86^[a] | C#CCOc1cc(F)cc(F)c1Nc1c(-c2ccc(OC)cc2F)c(C)nn1C [Example I-19] | – |
| 2.56^[a]; | C#CCOc1cc(F)c(Nc2c(-c3ccc(Cl)nc3)c(C)nn2C)c(F)c1 [Example I-20] | LogP [b]: 2.54^[b] |
| 2.95^[a]; | C=CCOc1cc(F)c(Nc2c(-c3ccc(Cl)nc3)c(C)nn2C)c(F)c1 [Example I-21] | LogP [b]: 2.92^[b] |
| – | C#CCOc1cc(F)cc(F)c1Nc1c(-c2ccc(OCC=C)cc2F)c(C)nn1C [Example I-22, 4-[4-(Allyloxy)-2-fluorophenyl]-N-[2,4-difluoro-6-(prop-2-yn-1-yloxy)phenyl]-1,3-dimethyl-1H-pyrazol-5-amine] | chromatographic logP (reversed phase HPLC columns): 3.3 |

| LogP [a] | Compound | further results |
| --- | --- | --- |
| 3.62^[a] | C=CCOc1ccc(-c2c(C)nn(C)c2Nc2c(F)cc(OCC=C)cc2F)c(F)c1 [Example I-23] | – |
| 3.17^[a] | C#CCOc1cc(F)c(Nc2c(-c3ccc(OCC=C)cc3F)c(C)nn2C)c(F)c1 [Example I-24] | – |
| 2.69^[a]; | C#CCOc1cc(F)cc(F)c1Nc1c(-c2ccc(Cl)nc2)c(C)nn1C [Example I-25] | LogP [b]: 2.63^[b] |
| 2.88^[a] | C#CCOc1ccc(-c2c(C)nn(C)c2Nc2c(F)cc(F)cc2OCC#C)c(F)c1 [Example I-26] | – |
| 2.77^[a] | C#CCOc1ccc(-c2c(C)nn(C)c2Nc2c(F)cc(OCC#C)cc2F)c(F)c1 [Example I-27] | – |
| 3.13^[a] | C#CCOc1ccc(-c2c(C)nn(C)c2Nc2c(F)cc(OCC=C)cc2F)c(F)c1 [Example I-28] | – |
| 3.25^[a]; | C#CCOc1ccc(Nc2c(-c3ccc(F)cc3Cl)c(C)nn2C)c(F)c1 [Example I-29] | LogP [b]: 3.22^[b] |
| 3.51^[a]; | C=CCOc1ccc(Nc2c(-c3ccc(F)cc3Cl)c(C)nn2C)cc1 [Example I-30] | LogP [b]: 3.52^[b] |
| 3.09^[a]; | C#CCOc1ccc(Nc2c(-c3ccc(F)cc3Cl)c(C)nn2C)cc1 [Example I-31] | LogP [b]: 3.06^[b] |
| 3.65^[a]; | C#CCOc1ccc(Nc2c(-c3ccc(F)cc3Cl)c(C)nn2C)c(Cl)c1 [Example I-32] | LogP [b]: 3.59^[b] |
| 3.33^[a]; | C#CCOc1cc(F)c(Nc2c(-c3ccc(F)cc3Cl)c(C)nn2C)cc1F [Example I-33] | LogP [b]: 3.23^[b];; LogP [c]: 3.20^[c] |
| 3.74^[a]; | C=CCOc1cc(F)c(Nc2c(-c3ccc(F)cc3Cl)c(C)nn2C)cc1F [Example I-34] | LogP [b]: 3.66^[b];; LogP [c]: 3.60^[c] |
| 3.61^[a]; | C=CCOc1ccc(Nc2c(-c3ccc(F)cc3Cl)c(C)nn2C)cc1F [Example I-35] | LogP [b]: 3.56^[b];; LogP [c]: 3.50^[c] |
| 3.17^[a]; | C#CCOc1ccc(Nc2c(-c3ccc(F)cc3Cl)c(C)nn2C)cc1F [Example I-36] | LogP [b]: 3.14^[b];; LogP [c]: 3.10^[c] |
| 3.78^[a]; | C=CCOc1ccc(F)c(Nc2c(-c3ccc(F)cc3Cl)c(C)nn2C)c1 [Example I-37] | LogP [b]: 3.73^[b];; LogP [c]: 3.70^[c] |
| 3.33^[a]; | C#CCOc1ccc(F)c(Nc2c(-c3ccc(F)cc3Cl)c(C)nn2C)c1 [Example I-38] | LogP [b]: 3.27^[b];; LogP [c]: 3.20^[c] |
| 3.70^[a]; | C#CCOc1cc(F)c(Nc2c(-c3ccc(Cl)cc3Cl)c(C)nn2C)cc1F [Example I-39] | LogP [b]: 3.62^[b];; LogP [c]: 3.60^[c] |
| 4.13^[a]; | C#CCOc1ccc(Nc2c(-c3ccc(Cl)cc3Cl)c(C)nn2C)c(Cl)c1 [Example I-40] | LogP [b]: 4.06^[b];; LogP [c]: 4.00^[c] |
| 4.23^[a]; | C=CCOc1ccc(Nc2c(-c3ccc(F)cc3Cl)c(C)nn2C)c(Cl)c1 [Example I-41] | LogP [b]: 4.20^[b] |
| 3.33^[a]; | C#CCOc1cc(F)cc(F)c1Nc1c(-c2ccc(F)cc2Br)c(C)nn1C [Example I-42] | LogP [b]: 3.32^[b] |
| 3.60^[a] | C#CCOc1ccccc1Nc1c(-c2ccc(F)cc2Br)c(C)nn1C [Example I-43] | – |
| 4.08^[a] | C=CCOc1ccc(F)cc1Nc1c(-c2ccc(F)cc2Br)c(C)nn1C [Example I-44] | – |

| LogP [a] | Compound | further results |
| --- | --- | --- |
| 3.64^[a] | C#CCOc1ccc(F)cc1Nc1c(-c2ccc(F)cc2Br)c(C)nn1C [Example I-45] | – |
| 4.39^[a] | C=CCOc1cc(C)ccc1Nc1c(-c2ccc(F)cc2Br)c(C)nn1C [Example I-46] | – |
| 3.87^[a] | C#CCOc1cc(C)ccc1Nc1c(-c2ccc(F)cc2Br)c(C)nn1C [Example I-47] | – |
| 3.99^[a] | C=CCOc1ccccc1Nc1c(-c2ccc(F)cc2Cl)c(C)nn1C [Example I-48] | – |
| 3.53^[a] | C#CCOc1ccccc1Nc1c(-c2ccc(F)cc2Cl)c(C)nn1C [Example I-49] | – |
| 4.01^[a] | C=CCOc1ccc(F)cc1Nc1c(-c2ccc(F)cc2Cl)c(C)nn1C [Example I-50] | – |
| 3.58^[a] | C#CCOc1ccc(F)cc1Nc1c(-c2ccc(F)cc2Cl)c(C)nn1C [Example I-51] | – |
| 4.32^[a] | C=CCOc1cc(C)ccc1Nc1c(-c2ccc(F)cc2Cl)c(C)nn1C [Example I-52] | – |
| 3.83^[a] | C#CCOc1cc(C)ccc1Nc1c(-c2ccc(F)cc2Cl)c(C)nn1C [Example I-53] | – |
| 4.49^[a] | C=CCOc1ccccc1Nc1c(-c2ccc(Cl)cc2Cl)c(C)nn1C [Example I-54] | – |
| 3.96^[a] | C#CCOc1ccccc1Nc1c(-c2ccc(Cl)cc2Cl)c(C)nn1C [Example I-55] | – |
| 4.49^[a] | C=CCOc1ccc(F)cc1Nc1c(-c2ccc(Cl)cc2Cl)c(C)nn1C [Example I-56] | – |
| 4.85^[a] | C=CCOc1cc(C)ccc1Nc1c(-c2ccc(Cl)cc2Cl)c(C)nn1C [Example I-57] | – |
| 4.30^[a] | C#CCOc1cc(C)ccc1Nc1c(-c2ccc(Cl)cc2Cl)c(C)nn1C [Example I-58] | – |
| 3.10^[a] | C#CCOc1cc(F)cc(F)c1Nc1c(-c2c(F)cc(F)cc2F)c(C)nn1C [Example I-59] | – |
| 3.49^[a] | C#CCOc1cc(F)cc(F)c1Nc1c(-c2c(F)cc(Cl)cc2F)c(C)nn1C [Example I-60] | – |
| 3.00^[a] | C#CCOc1cc(F)cc(F)c1Nc1c(-c2c(F)cc(OC)cc2F)c(C)nn1C [Example I-61] | – |
| 2.85^[a] | C#CCOc1cc(F)c(Nc2c(-c3c(F)cc(OC)cc3F)c(C)nn2C)c(F)c1 [Example I-62] | – |
| 2.99^[a] | C#CCOc1cc(F)c(-c2c(C)nn(C)c2Nc2c(F)cc(F)cc2OCC#C)c(F)c1 [Example I-63] | – |
| 3.56^[a] | C#CCOc1cccc(Cl)c1Nc1c(-c2ccc(F)cc2Cl)c(C)nn1C [Example I-64] | – |
| 4.06^[a] | C=CCOc1cccc(Cl)c1Nc1c(-c2ccc(F)cc2Cl)c(C)nn1C [Example I-65] | – |
| 3.99^[a] | C#CCOc1cccc(Cl)c1Nc1c(-c2ccc(Cl)cc2Cl)c(C)nn1C [Example I-66] | – |
